From US5607926A, “Cephalosporin antibiotics” (Microcide Pharmaceuticals, Inc., priority 1995, dated 1997)
Converted amounts (≈) assume the structure as drawn. Structures can show the parent of a compound that is named as a salt. Where two headings read alike, the source gives them in different places.

Tests used:
Type in all cases: cell-based
S. haemolyticus (Meth^R) = assay: In vitro antibacterial evaluation, MIC by agar dilution, S. haemolyticus; settings: Staphylococcus haemolyticus, read-out: MIC
Protocol: (§1) The compounds of the invention were evaluated against several β-lactamresistant bacteria strains by determining the minimum inhibitory concentration (MIC, μg/ml) of each compound with respect to each strain. The MIC, the lowest concentration of antibiotic which inhibits growth of the test organism, was determined by the agar dilution method.
(§2) To determine the MIC for bacterial isolates, the test compound was incorporated in a series of two-fold dilutions into liquified Mueller-Hinton agar. Upon solidification, a number of different bacterial strains were spot inoculated with a replicating device onto the agar surface. […] The procedures used in these studies have been standardized by the National Committee for Clinical Laboratory Standards (NCCLS), as per the NCCLS publication entitled METHODS FOR DILUTION ANTIMICROBIAL SUSCEPTIBILITY TESTS (1991), which is incorporated herein by reference.
(§3) Aliquots of antimicrobial agents were prepared in phosphate buffered saline (PBS) at pH 7.2. Tween 20 or DMSO was used as a solubilizing vehicle as needed. Standard methods of vortexing, sonicating and gentle heat were used to facilitate solubilizing the test agent. Typically, the concentration of the stock solution was 10× that of the highest drug concentration tested. A 1.28 mg/mL stock solution was used with a subsequent highest working concentration of 128 μg/mL. Serial two-fold dilutions were done through ≤0.25 μg/mL. Each drug level was tested in duplicate. Two-fold drug dilutions were done in sterile 50 mL tubes with a final drug volume of 5 mL. Upon the addition of 45 mL of molten agar, a 10-fold dilution resulted. Two, 25 mL. plates were then poured into 15×150 mm square Petri plates with grids and allowed to harden.
(§4) A control plate with a reference drug, either cefotaxime, vancomycin or imipenem, was used as the positive growth control. Stock concentrations of reference antibiotics were prepared and frozen at -80° C. Upon preparation, the control plates were sealed and stored in the refrigerator for up to 1 week prior to use; however, imipenem control plates had to be prepared just prior to use. All test plates were used within 24 hours of preparation.
(§5) Satisfactory results were obtained where the inoculum contained about 10^4 colony forming units (cfu) ±0.5 logs. Starting with pure cultures of the test isolates on agar plates, a few isolated colonies were transferred to a tube of nutrient broth and allowed to grow 4-6 hours at 35°-36° C. to reach log-phase growth. Dropwise addition of the broth culture to PBS was done to match a 0.5 McFarland turbidity standard equal to 10^8 cfu/mL. This was further diluted ten-fold in PBS to reach a working inoculum concentration of 10^7 cfu/mL. When 1 μL of the working inoculum was applied to the agar surface a concentration of about 10^4 cfu per spot was obtained.
(§6) Disposable sterile 1 μL loops were used to inoculate test plates, with each isolate in a designated grid on the agar plate. An alternate method of inoculation involved the use of a replica plater, a device with 48 steel pins allowing the simultaneous inoculation of multiple isolates. After the spots had dried, the plates were incubated at 35°-36° C. for 16-20 hours. Endpoints were assessed as the minimum inhibitory concentration (MIC) of antimicrobial agent.

[1] = test system: S. epidermidis ATCC 31432; assay: In vitro antibacterial evaluation, MIC by agar dilution, S. epidermidis ATCC 31432; settings: Staphylococcus epidermidis, ATCC31432; S. epidermidis ATCC 31432; read-out: MIC
Protocol: as §1, §2, §3, §4, §5, §6

[2] = test system: S. aureus 76 (Meth^R)(lac^+); assay: In vitro antibacterial evaluation, MIC by agar dilution, S. aureus 76; settings: Staphylococcus aureus, read-out: MIC
Protocol: as §1, §2, §3, §4, §5, §6

E. coli ATCC 25922 = assay: In vitro antibacterial evaluation, MIC by agar dilution, E. coli ATCC 25922; settings: Escherichia coli, ATCC25922, read-out: MIC
Protocol: as §1, §2, §3, §4, §5, §6

E. faecium ATCC 35667 = assay: In vitro antibacterial evaluation, MIC by agar dilution, E. faecium ATCC 35667; settings: Enterococcus faecium, ATCC35667, read-out: MIC
Protocol: as §1, §2, §3, §4, §5, §6

[3] = test system: S. aureus Col8A (Meth^S)(lac^-); assay: In vitro antibacterial evaluation, MIC by agar dilution, S. aureus Col8A; settings: Staphylococcus aureus
Protocol: as §1, §2, §3, §4, §5, §6
The novel agents of this invention are notable for their enhanced activity against S. aureus Col and Enterococci (E. faecium and E. faecalis). The S. aureus Col strain is a high-level PBP2a producer, whereas S. aureus Col 8A, its isogenic partner, lacks PBP2a. […] Thus, the compounds of the present invention are effective against PBP2a-producing bacteria.

S. aureus ATCC 29213 = assay: In vitro antibacterial evaluation, MIC by agar dilution, S. aureus ATCC 29213; settings: Staphylococcus aureus, ATCC29213
Protocol: as §1, §2, §3, §4, §5, §6

P. aeruginosa ATCC 27853 = assay: In vitro antibacterial evaluation, MIC by agar dilution, P. aeruginosa ATCC 27853; settings: Pseudomonas aeruginosa, ATCC27853, read-out: MIC
Protocol: as §1, §2, §3, §4, §5, §6

E. faecalis ATCC 29212 = assay: In vitro antibacterial evaluation, MIC by agar dilution, E. faecalis ATCC 29212; settings: Enterococcus faecalis, ATCC29212; E. faecalis ATCC 29212; read-out: MIC
Protocol: as §1, §2, §3, §4, §5, §6

[4] = S. aureus ATCC 29213, read-out: MIC

SMILES	MIC (S. haemolyticus (Meth^R)) [µg/mL]	MIC [1] [µg/mL]	MIC [2] [µg/mL]	MIC (E. coli ATCC 25922) [µg/mL]	MIC (E. faecium ATCC 35667) [µg/mL]	MIC [3] [µg/mL]	MIC (S. aureus ATCC 29213) [µg/mL]	MIC (P. aeruginosa ATCC 27853) [µg/mL]	MIC (E. faecalis ATCC 29212) [µg/mL]	MIC (S. aureus ATCC 29213; [4]) [µg/mL]
O=C(Cc1ccccc1)N[C@@H]1C(=O)N2C(C(=O)O)=C(Sc3cc(Cl)ccc3Cl)CS[C@H]12 [Cmpd 16, (7R)-7-[(Phenylacetyl)amino]-3-(2,5-dichlorophenylthio)-3-cephem-4-carboxylic acid]	16 (≈ 32.3 µM)	< 0.5	4 (≈ 8.07 µM)	> 16	4 (≈ 8.07 µM)	–	–	–	–	–
CCCCCC(=O)N[C@@H]1C(=O)N2C(C(=O)O)=C(Sc3ccnn3-c3ccccc3)CS[C@H]12 [Cmpd 109, (7R)-7-[(hexanoyl)amino]-3-(1-N-phenylpyrazol-5-ylthio)-3-cephem-4-carboxylic acid]	32 (≈ 67.7 µM)	–	16 (≈ 33.9 µM)	> 32	4 (≈ 8.46 µM)	0.125 (≈ 0.264 µM)	0.125 (≈ 0.264 µM)	> 32	4 (≈ 8.46 µM)	–
O=C(Cc1ccco1)N[C@@H]1C(=O)N2C(C(=O)O)=C(Sc3ccnn3-c3ccccc3)CS[C@H]12 [Cmpd 111, (7R)-7-[(2-furylacetyl)amino]-3-(1-N-phenylpyrazol-5-ylthio)-3-cephem-4-carboxylic acid]	32 (≈ 66.3 µM)	–	16 (≈ 33.2 µM)	> 32	4 (≈ 8.29 µM)	0.25 (≈ 0.518 µM)	–	> 32	4 (≈ 8.29 µM)	0.5 (≈ 1.04 µM)
O=C(Cc1ccccc1)N[C@@H]1C(=O)N2C(C(=O)O)=C(Sc3ccnn3-c3cccc([N+](=O)[O-])c3)CS[C@H]12 [Cmpd 113, (7R)-7-[(Phenylacetyl)amino]-3-(1-N-(3-nitrophenyl)pyrazol-5-ylthio)-3-cephem-4-carboxylic acid]	> 32	–	16 (≈ 29.8 µM)	> 32	4 (≈ 7.44 µM)	0.125 (≈ 0.233 µM)	0.125 (≈ 0.233 µM)	> 32	1 (≈ 1.86 µM)	–
COc1ccc(-n2nccc2SC2=C(C(=O)O)N3C(=O)[C@@H](NC(=O)Cc4ccccc4)[C@H]3SC2)cc1 [Cmpd 114, (7R)-7-[(Phenylacetyl)amino]-3-(1-N-(4-methoxyphenyl)pyrazol-5-ylthio)-3-cephem-4-carboxylic acid]	32 (≈ 61.2 µM)	–	16 (≈ 30.6 µM)	> 32	2 (≈ 3.83 µM)	0.125 (≈ 0.239 µM)	–	> 32	1 (≈ 1.91 µM)	0.25 (≈ 0.478 µM)
O=C(Cc1cccs1)N[C@@H]1C(=O)N2C(C(=O)O)=C(Sc3ccnn3-c3ccccc3)CS[C@H]12 [Cmpd 116, (7R)-7-[(2-thienylacetyl)amino]-3-(1-N-phenylpyrazol-5-ylthio)-3-cephem-4-carboxylic acid]	16 (≈ 32.1 µM)	–	16 (≈ 32.1 µM)	> 32	2 (≈ 4.01 µM)	0.125 (≈ 0.251 µM)	–	> 32	2 (≈ 4.01 µM)	0.25 (≈ 0.501 µM)
COc1cccc(-n2nccc2SC2=C(C(=O)O)N3C(=O)[C@@H](NC(=O)Cc4ccccc4)[C@H]3SC2)c1 [Cmpd 117, (7R)-7-[(Phenylacetyl)amino]-3-(1-N-(3-methoxyphenyl)pyrazol-5-ylthio)-3-cephem-4-carboxylic acid]	32 (≈ 61.2 µM)	–	16 (≈ 30.6 µM)	> 32	1 (≈ 1.91 µM)	0.125 (≈ 0.239 µM)	–	> 32	2 (≈ 3.83 µM)	0.25 (≈ 0.478 µM)
Nc1nnc(SCC(=O)N[C@@H]2C(=O)N3C(C(=O)O)=C(Sc4ccnn4-c4ccccc4)CS[C@H]23)s1 [Cmpd 120]	32 (≈ 58.4 µM)	–	16 (≈ 29.2 µM)	> 32	8 (≈ 14.6 µM)	0.25 (≈ 0.456 µM)	0.25 (≈ 0.456 µM)	> 32	4 (≈ 7.3 µM)	–
O=C(O)C1=C(Sc2ccnn2-c2ccccc2)CS[C@@H]2[C@H](NC(=O)C(=NO)c3ccco3)C(=O)N12 [Cmpd 121, (7R)-7-[2-(2-furyl)-2-(hydroxyimino)acetamido]-3-(1-N-phenylpyrazol-5-ylthio)-3-cephem-4-carboxylic acid]	16 (≈ 31.3 µM)	–	8 (≈ 15.6 µM)	> 32	2 (≈ 3.91 µM)	0.5 (≈ 0.977 µM)	–	> 32	0.5 to 1 (≈ 0.977 to 1.95 µM)	0.5 (≈ 0.977 µM)
O=C(Cc1ccccc1)N[C@@H]1C(=O)N2C(C(=O)O)=C(Sc3ccnn3-c3ccc(F)cc3)CS[C@H]12 [Cmpd 123, (7R)-7-[(Phenylacetyl)amino]-3-(1-N-(4-fluorophenyl)pyrazol-5-ylthio)-3-cephem-4-carboxylic acid]	16 (≈ 31.3 µM)	–	8 (≈ 15.7 µM)	> 32	4 (≈ 7.83 µM)	≤ 0.06	–	> 32	2 (≈ 3.92 µM)	0.06 (≈ 0.118 µM)
N=C(N)SCc1ccccc1SC1=C(C(=O)O)N2C(=O)[C@@H](NC(=O)Cc3ccc(CN)cc3)[C@H]2SC1 [Cmpd 124, (7R)-7-[((4-aminomethylphenyl)acetyl)amino]-3-(2-isothiouroniummethylphenylthio)-3-cephem-4-carboxylate, trifluoroacetic acid salt]	16	–	16	> 32	1	0.25	0.25	> 32	1	–
O=C(Cc1ccccc1)N[C@@H]1C(=O)N2C(C(=O)O)=C(Sc3ccccc3-n3cccn3)CS[C@H]12 [Cmpd 132, (7R)-7-[(Phenylacetyl)amino]-3-(2-(pyrazol-1-yl)phenylthio)-3-cephem-4-carboxylic acid]	> 32	–	32 (≈ 65 µM)	> 32	4 (≈ 8.12 µM)	0.25 (≈ 0.508 µM)	–	> 32	4 (≈ 8.12 µM)	0.125 (≈ 0.254 µM)
CSCC(=O)N[C@@H]1C(=O)N2C(C(=O)O)=C(Sc3ccccc3CSC(=N)NN)CS[C@H]12 [Cmpd 133, (7R)-7-[(methylthioacetyl)amino]-3-(2-(N-amino)isothiouroniummethylphenylthio)-3-cephem-4-carboxylate, inner salt]	16	–	8	> 32	1	0.125	0.125	> 32	1	–
N=C(N)SCc1ccccc1SC1=C(C(=O)O)N2C(=O)[C@@H](NC(=O)CSCCCI)[C@H]2SC1 [Cmpd 134, (7R)-7-[(3-iodoprop-1-ylthioacetyl)amino]-3-(2-isothiouroniummethylphenylthio)-3-cephem-4-carboxylate, inner salt]	16	–	8	> 32	1	0.125	0.125	> 32	0.5	–
CSCC(=O)N[C@@H]1C(=O)N2C(C(=O)O)=C(Sc3ccccc3CNC(=N)N)CS[C@H]12 [Cmpd 135, (7R)-7-[(Methylthioacetyl)amino]-3-(2-guanidiniummethylphenylthio)-3-cephem-4-carboxylate, inner salt]	32	–	16	> 32	2 to 4	≤ 0.06	–	> 32	2 to 4	0.125
